From the Kinase Knowledgebase extract (Sharma et al. 2016)
“And” between values parts separate entries of the source, which are not always exact repeats. Identical values can stand only once.

Target: PIK3CD (Human) (UniProt O00329)
Test: Assessment of PIK3CD Kinase Activity

Chain of PIK3CD (Human) (O00329 whole entry, looked up): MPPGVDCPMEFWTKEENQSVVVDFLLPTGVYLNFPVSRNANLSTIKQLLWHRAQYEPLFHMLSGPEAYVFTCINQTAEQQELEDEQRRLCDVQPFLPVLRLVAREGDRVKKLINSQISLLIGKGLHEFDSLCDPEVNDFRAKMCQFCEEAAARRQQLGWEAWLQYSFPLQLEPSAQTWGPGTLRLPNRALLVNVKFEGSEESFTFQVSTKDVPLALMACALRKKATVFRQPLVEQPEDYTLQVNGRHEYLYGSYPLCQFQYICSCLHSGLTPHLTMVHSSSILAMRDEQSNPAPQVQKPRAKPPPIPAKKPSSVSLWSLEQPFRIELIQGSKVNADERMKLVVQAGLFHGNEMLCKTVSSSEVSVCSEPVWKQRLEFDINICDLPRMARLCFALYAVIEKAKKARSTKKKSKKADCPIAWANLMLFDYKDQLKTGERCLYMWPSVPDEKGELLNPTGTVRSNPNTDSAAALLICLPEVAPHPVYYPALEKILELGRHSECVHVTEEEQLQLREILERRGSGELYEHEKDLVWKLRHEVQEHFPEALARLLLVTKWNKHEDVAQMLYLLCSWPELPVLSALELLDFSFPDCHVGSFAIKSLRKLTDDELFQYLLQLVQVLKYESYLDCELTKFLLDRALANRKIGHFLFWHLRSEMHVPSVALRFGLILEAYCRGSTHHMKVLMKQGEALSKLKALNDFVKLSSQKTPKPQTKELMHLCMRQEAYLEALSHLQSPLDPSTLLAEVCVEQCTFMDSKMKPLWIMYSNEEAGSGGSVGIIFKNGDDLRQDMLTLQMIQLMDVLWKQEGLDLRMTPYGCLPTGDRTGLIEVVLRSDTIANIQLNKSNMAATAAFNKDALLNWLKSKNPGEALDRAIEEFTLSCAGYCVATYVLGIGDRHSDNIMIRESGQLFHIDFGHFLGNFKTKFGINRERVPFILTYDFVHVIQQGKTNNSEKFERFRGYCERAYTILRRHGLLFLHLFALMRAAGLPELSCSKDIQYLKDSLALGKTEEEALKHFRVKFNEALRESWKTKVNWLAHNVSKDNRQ

SMILES	IC50
CC(Nc1nc(N)nc2[nH]cnc12)c1ccc2ccccc2c1-c1cncc(F)c1 (centres undefined)	< 50 nM
CC(Nc1ncnc2[nH]cnc12)c1cc(F)c2ccnnc2c1-c1cccc(F)c1 (centres undefined)	100 to 250 nM and < 50 nM
CC(Nc1ncnc2[nH]cnc12)c1ccc2cccnc2c1-c1cc(F)cc(F)c1 (centres undefined)	500 to 1000 nM
CC(Nc1ncnc2[nH]cnc12)c1cc(Cl)c2ccnnc2c1-c1ccnc(F)c1 (centres undefined)	500 to 1000 nM
Fc1cccc(-c2c(CNc3ncnc4[nH]cnc34)cc(Cl)c3ccnnc23)c1	500 to 1000 nM
CC(Nc1ncnc2[nH]cnc12)c1cc(Cl)c2ccncc2c1-c1cccc(F)c1 (centres undefined)	< 50 nM
CC(Nc1ncnc2[nH]cnc12)c1ccc2ccccc2c1-c1cncc(F)c1 (centres undefined)	< 50 nM
CC(Nc1ncnc2[nH]cnc12)c1ccc2ccccc2c1-c1cccc(F)c1 (centres undefined)	100 to 250 nM
CC(Nc1ncnc2[nH]cnc12)c1cc(F)c2cccnc2c1N1CCN(C(=O)c2cnn(C)c2)CC1 (centres undefined)	< 50 nM
C[C@@H](Nc1ncnc2[nH]cnc12)c1cc(F)c2cccnc2c1-c1cccc(F)c1	< 50 nM
CC(Nc1ncnc2[nH]cnc12)c1ccc2cccnc2c1-c1cccc(F)c1 (centres undefined)	250 to 500 nM
CC(Nc1ncnc2[nH]cnc12)c1cc(Cl)c2ccnnc2c1-c1cncc(F)c1 (centres undefined)	50 to 100 nM
CCc1cc(C(C)Nc2ncnc3[nH]cnc23)c(-c2cccc(F)c2)c2ncccc12 (centres undefined)	50 to 100 nM
CC(Nc1ncnc2[nH]cnc12)c1cc(Cl)c2cccnc2c1-c1ccccc1F (centres undefined)	100 to 250 nM and < 50 nM
CC(Nc1ncnc2[nH]cnc12)c1cc(Cl)c2conc2c1-c1cccc(F)c1 (centres undefined)	< 50 nM
CC(Nc1ncnc2[nH]cnc12)c1cc(Cl)c2cn[nH]c2c1-c1cc(F)cc(F)c1 (centres undefined)	< 50 nM
CC(Nc1ncnc2[nH]cnc12)c1cc(F)c2ccnnc2c1-c1cc(F)cc(F)c1 (centres undefined)	100 to 250 nM
CC(Nc1ncnc2[nH]cnc12)c1nc(C#N)c2ccccc2c1-c1cccc(F)c1 (centres undefined)	50 to 100 nM
C[C@H](Nc1ncnc2[nH]cnc12)c1cc(F)c2cccnc2c1-c1cccc(F)c1	< 50 nM
CC(Nc1ncnc2[nH]cnc12)c1cc(Cl)c2cccnc2c1-c1cccc(F)c1 (centres undefined)	< 50 nM

SMILES	IC50
COc1ccc(-c2c(C(C)Nc3ncnc4[nH]cnc34)cc(Cl)c3ccnnc23)cc1F (centres undefined)	500 to 1000 nM
CC(Nc1ncnc2[nH]cnc12)c1ccc2cccnc2c1-c1cncc(F)c1 (centres undefined)	500 to 1000 nM
CC(Nc1ncnc2[nH]cnc12)c1cc(Cl)c2ccnnc2c1-c1cc(F)cc(F)c1 (centres undefined)	< 50 nM
CC(Nc1ncnc2[nH]cnc12)c1cc(Cl)c2cccnc2c1N1CCN(C(=O)c2ccc(F)cc2)CC1 (centres undefined)	100 to 250 nM
Cc1nc(C(C)Nc2ncnc3[nH]cnc23)c(-c2cccc(F)c2)c2ccccc12 (centres undefined)	100 to 250 nM
CC(Nc1ncnc2[nH]cnc12)c1cc(Cl)c2cnn(C)c2c1-c1cc(F)cc(F)c1 (centres undefined)	< 50 nM
CC(Nc1ncnc2[nH]cnc12)c1cc(Cl)c2cn[nH]c2c1-c1cccc(F)c1 (centres undefined)	< 50 nM
CC(Nc1ncnc2[nH]cnc12)c1ccc2cccnc2c1-c1ccccc1F (centres undefined)	500 to 1000 nM
CC(Nc1nc(N)nc2[nH]cnc12)c1cc(F)c2ccnnc2c1-c1cccc(F)c1 (centres undefined)	< 50 nM
CC(Nc1ncnc2[nH]cnc12)c1cc(Cl)c2ccnnc2c1-c1ccccc1F (centres undefined)	< 50 nM and 50 to 100 nM and 250 to 500 nM
CC(Nc1ncnc2[nH]cnc12)c1cc(Cl)c2cccnc2c1N1CCN(C(=O)c2cccc(F)c2)CC1 (centres undefined)	100 to 250 nM
CC(Nc1ncnc2[nH]cnc12)c1cc(C#N)c2cccnc2c1-c1cccc(F)c1 (centres undefined)	50 to 100 nM
Cc1cc(C(C)Nc2ncnc3[nH]cnc23)c(-c2cccc(F)c2)c2ncccc12 (centres undefined)	100 to 250 nM
CCC(Nc1ncnc2[nH]cnc12)c1cc(Cl)c2ccnnc2c1-c1cccc(F)c1 (centres undefined)	< 50 nM
Cc1cc(C(C)Nc2ncnc3[nH]cnc23)c(-c2cccc(F)c2)c2nnccc12 (centres undefined)	< 50 nM and 500 to 1000 nM
CC(Nc1ncnc2[nH]cnc12)c1cc(F)c2cccnc2c1N1CCN(C2CCC2)CC1 (centres undefined)	< 50 nM
CC(Nc1ncnc2[nH]cnc12)c1cc(Cl)c2ccccc2c1-c1cccc(F)c1 (centres undefined)	100 to 250 nM
CC(Nc1ncnc2[nH]cnc12)c1cc(Cl)c2cccnc2c1N1CCN(C(=O)c2ccccc2F)CC1 (centres undefined)	250 to 500 nM
CC(Nc1nc(N)nc2[nH]cnc12)c1ccc2ccccc2c1-c1cccc(F)c1 (centres undefined)	500 to 1000 nM
Cc1cc(C(C)Nc2ncnc3[nH]cnc23)c(-c2cc(F)cc(F)c2)c2nnccc12 (centres undefined)	< 50 nM

The next lines start with the values.

IC50	SMILES
250 to 500 nM	CC(Nc1ncnc2[nH]cnc12)c1cc(Cl)c2ccncc2c1N1CC[C@H](F)C1 (some centres undefined)
< 50 nM	CC(C)C(=O)N[C@H]1CCN(c2c(C(C)Nc3ncnc4[nH]cnc34)cc(Cl)c3cccnc23)C1 (some centres undefined)
< 50 nM	COC(=O)N1CCN(c2c(C(C)Nc3ncnc4[nH]cnc34)cc(Cl)c3cccnc23)CC1 (centres undefined)
50 to 100 nM	COC1CCN(c2c(C(C)Nc3ncnc4[nH]cnc34)cc(Cl)c3cccnc23)CC1 (centres undefined)
100 to 250 nM	CC(Nc1ncnc2[nH]cnc12)c1cc(Cl)c2cccnc2c1N1CCC(C#N)CC1 (centres undefined)
250 to 500 nM	CC(Nc1ncnc2[nH]cnc12)c1cc(Cl)c2cccnc2c1N1CCC(c2ccccc2)C1 (centres undefined)
100 to 250 nM	CC(Nc1ncnc2[nH]cnc12)c1cc(Cl)c2cccnc2c1N1CCCC(CO)C1 (centres undefined)
50 to 100 nM	CC(Nc1ncnc2[nH]cnc12)c1cc(Cl)c2cccnc2c1N1CCC(N2CCCCC2)CC1 (centres undefined)
< 50 nM	COC(=O)NC1CCN(c2c(C(C)Nc3ncnc4[nH]cnc34)cc(Cl)c3cccnc23)CC1 (centres undefined)
< 50 nM	CC(Nc1ncnc2[nH]cnc12)c1cc(Cl)c2cccnc2c1N1CCN(C(=O)C2CC2)CC1 (centres undefined)
250 to 500 nM	CC(Nc1ncnc2[nH]cnc12)c1cc(Cl)c2cccnc2c1N1CCCC(F)C1 (centres undefined)
100 to 250 nM	CC(Nc1ncnc2[nH]cnc12)c1cc(Cl)c2cccnc2c1N1CCC(CCO)CC1 (centres undefined)
50 to 100 nM	CC(Nc1ncnc2[nH]cnc12)c1cc(Cl)c2cccnc2c1N1CCN(C2CCCCC2)CC1 (centres undefined)
< 50 nM	CC(Nc1ncnc2[nH]cnc12)c1cc(Cl)c2cccnc2c1N1CCN(C(=O)c2ccccn2)CC1 (centres undefined)
100 to 250 nM	CC(Nc1ncnc2[nH]cnc12)c1cc(Cl)c2cccnc2c1N1CCC(F)CC1 (centres undefined)
< 50 nM	CCC(=O)N[C@H]1CCN(c2c(C(C)Nc3ncnc4[nH]cnc34)cc(Cl)c3cccnc23)C1 (some centres undefined)
100 to 250 nM	CC(Nc1ncnc2[nH]cnc12)c1cc(Cl)c2cccnc2c1N1CCC(C#N)C1 (centres undefined)
250 to 500 nM and 100 to 250 nM	COC1CCCN(c2c(C(C)Nc3ncnc4[nH]cnc34)cc(Cl)c3cccnc23)C1 (centres undefined)
500 to 1000 nM	CC(Nc1ncnc2[nH]cnc12)c1cc(Cl)c2cccnc2c1N1CCC(F)(F)CC1 (centres undefined)
< 50 nM	CC(Nc1ncnc2[nH]cnc12)c1cc(Cl)c2cccnc2c1N1CC[C@@H](O)C1 (some centres undefined)
50 to 100 nM and < 50 nM	COC(=O)N[C@H]1CCN(c2c(C(C)Nc3ncnc4[nH]cnc34)cc(Cl)c3cccnc23)C1 (some centres undefined)
< 50 nM	COCCN1CCN(c2c(C(C)Nc3ncnc4[nH]cnc34)cc(Cl)c3cccnc23)CC1 (centres undefined)
< 50 nM	CC(=O)N1CCC(C(=O)N2CCN(c3c(C(C)Nc4ncnc5[nH]cnc45)cc(Cl)c4cccnc34)CC2)CC1 (centres undefined)
< 50 nM	CC(Nc1ncnc2[nH]cnc12)c1cc(Cl)c2cccnc2c1N1CCN(C(=O)N(C)C)CC1 (centres undefined)
250 to 500 nM and < 50 nM	CC(Nc1ncnc2[nH]cnc12)c1cc(Cl)c2cccnc2c1N1CC[C@H](NS(C)(=O)=O)C1 (some centres undefined)

IC50	SMILES
< 50 nM	CC(Nc1ncnc2[nH]cnc12)c1cc(Cl)c2cccnc2c1N1CCN(C2CCC2)CC1 (centres undefined)
< 50 nM	CC(Nc1ncnc2[nH]cnc12)c1cc(Cl)c2cccnc2c1N1CCN(C(=O)C2CCC2)CC1 (centres undefined)
< 50 nM	CC(Nc1ncnc2[nH]cnc12)c1cc(Cl)c2cccnc2c1N1CCC[C@H](O)C1 (some centres undefined)
< 50 nM	CC(Nc1ncnc2[nH]cnc12)c1cc(Cl)c2cccnc2c1N1CCN(Cc2ccncc2)CC1 (centres undefined)
< 50 nM	CC(Nc1ncnc2[nH]cnc12)c1cc(Cl)c2cccnc2c1N1CCC(O)CC1 (centres undefined)
100 to 250 nM	CC(Nc1ncnc2[nH]cnc12)c1cc(Cl)c2cccnc2c1N1CCC(NS(C)(=O)=O)CC1 (centres undefined)
< 50 nM	Cc1cc(C(=O)N2CCN(c3c(C(C)Nc4ncnc5[nH]cnc45)cc(Cl)c4cccnc34)CC2)no1 (centres undefined)
100 to 250 nM	COC[C@H]1CCCN1c1c(C(C)Nc2ncnc3[nH]cnc23)cc(Cl)c2cccnc12 (some centres undefined)
< 50 nM	CC(Nc1ncnc2[nH]cnc12)c1cc(Cl)c2cccnc2c1N1CCN(C(=O)c2ccn(C)n2)CC1 (centres undefined)
< 50 nM	CC(Nc1ncnc2[nH]cnc12)c1cc(Cl)c2ccccc2c1N1CCC(O)CC1 (centres undefined)
< 50 nM	CC(Nc1ncnc2[nH]cnc12)c1cc(Cl)c2cccnc2c1N1CCN(C(=O)c2cnccn2)CC1 (centres undefined)
< 50 nM	COCC(=O)N1CCN(c2c(C(C)Nc3ncnc4[nH]cnc34)cc(Cl)c3cccnc23)CC1 (centres undefined)
50 to 100 nM	CC(Nc1ncnc2[nH]cnc12)c1cc(Cl)c2cccnc2c1N1CCN(C(=O)c2ccccc2)CC1 (centres undefined)
< 50 nM	CC(=O)NC1CCN(c2c(C(C)Nc3ncnc4[nH]cnc34)cc(Cl)c3cccnc23)CC1 (centres undefined)
< 50 nM	CC(Nc1ncnc2[nH]cnc12)c1cc(Cl)c2cccnc2c1N1CCN(C(=O)c2cccnc2)CC1 (centres undefined)
< 50 nM	CC(Nc1ncnc2[nH]cnc12)c1cc(Cl)c2cccnc2c1N1CCN(CCO)CC1 (centres undefined)
< 50 nM	CC(=O)N[C@H]1CCN(c2c(C(C)Nc3ncnc4[nH]cnc34)cc(Cl)c3cccnc23)C1 (some centres undefined)
< 50 nM	Cc1noc(C)c1C(=O)N1CCN(c2c(C(C)Nc3ncnc4[nH]cnc34)cc(Cl)c3cccnc23)CC1 (centres undefined)
< 50 nM	CC(Nc1ncnc2[nH]cnc12)c1cc(Cl)c2cccnc2c1N1CCN(CC(=O)N(C)C)CC1 (centres undefined)
< 50 nM	CC(Nc1ncnc2[nH]cnc12)c1cc(Cl)c2cccnc2c1N1CCN(C2CC2)CC1 (centres undefined)
< 50 nM	CC(Nc1ncnc2[nH]cnc12)c1cc(Cl)c2cccnc2c1N1CCN(C(=O)c2ccncc2)CC1 (centres undefined)
< 50 nM and 50 to 100 nM	COC1CCN(c2c(C(C)Nc3ncnc4[nH]cnc34)cc(Cl)c3cccnc23)C1 (centres undefined)
100 to 250 nM	CC(Nc1ncnc2[nH]cnc12)c1cc(Cl)c2cccnc2c1N1CCC(CO)CC1 (centres undefined)
100 to 250 nM	CC(Nc1ncnc2[nH]cnc12)c1cc(F)c2cccnc2c1N1CC[C@@H](O)C1 (some centres undefined)
